Reference: patent publication US8063075B2, “Pyrrolidine ether derivatives as NK3 receptor antagonists” (Hoffmann-La Roche Inc., priority 2008, dated 2011)

Tests used:
[1] = phase II trial, cited from earlier work
[2] = molecular target: T1, recombinant human NK3 receptor (Homo sapiens, UniProt P29371); assay: [3H]SR142801 competition binding assay; conditions: membranes from HEK293 cells transiently expressing hNK3; [3H]SR142801 at its KD; 75 min RT; read-out: Data [μM] (affinity constant Ki, hNK3 receptor binding)
T1 construct: expressed in transfected cells; host or cells: HEK293 cells (transient expression), membranes
T1 sequence (P29371 1-465): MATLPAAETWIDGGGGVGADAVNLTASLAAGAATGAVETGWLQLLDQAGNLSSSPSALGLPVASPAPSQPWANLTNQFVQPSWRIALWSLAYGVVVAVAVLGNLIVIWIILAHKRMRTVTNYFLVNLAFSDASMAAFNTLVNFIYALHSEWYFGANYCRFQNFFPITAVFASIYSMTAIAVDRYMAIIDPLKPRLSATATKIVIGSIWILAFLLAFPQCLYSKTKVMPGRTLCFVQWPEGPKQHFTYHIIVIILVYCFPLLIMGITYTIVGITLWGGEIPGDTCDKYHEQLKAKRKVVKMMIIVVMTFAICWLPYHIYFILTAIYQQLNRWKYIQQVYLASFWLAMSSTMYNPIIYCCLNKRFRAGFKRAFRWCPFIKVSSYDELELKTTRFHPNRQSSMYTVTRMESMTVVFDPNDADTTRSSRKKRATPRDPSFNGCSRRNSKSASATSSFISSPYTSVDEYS
Method: [^3H]SR142801 Competition Binding Assay
hNK3 receptor binding experiment were performed using [^3H]SR142801 (Catalog No. TRK1035, specific activity: 74.0 Ci/mmol, Amersham, GE Healthcare UK limited, Buckinghamshire, UK) and membrane isolated from HEK293 cells transiently expressing recombinant human NK3 receptor. After thawing, the membrane homogenates were centrifuged at 48,000×g for 10 min at 4° C., the pellets were resuspended in the 50 mM Tris-HCl, 4 mM MnCl2, 1 μM phosphoramidon, 0.1% BSA binding buffer at pH 7.4 to a final assay concentration of 5 μg protein/well. […] At the end of the incubation, membranes were filtered onto unitfilter (96-well white microplate with bonded GF/C filter preincubated 1 h in 0.3% PEI+0.3% BSA, Packard BioScience, Meriden, Conn.) with a Filtermate 196 harvester (Packard BioScience) and washed 4 times with ice-cold 50 mM Tris-HCl, pH 7.4 buffer. Nonspecific binding was measured in the presence of 10 μM SB222200 for both radioligands. The radioactivity on the filter was counted (5 min) on a Packard Top-count microplate scintillation counter with quenching correction after addition of 45 μl of microscint 40 (Can berra Packard S. A., Zürich, Switzerland) and shaking for 1 h. Inhibition curves were fitted according to the Hill equation: y=100/(1+(x/IC50)^nH), where nH=slope factor using Excel-fit 4 software (Microsoft). IC50 values were derived from the inhibition curve and the affinity constant (Ki) values were calculated using the Cheng-Prussoff equation Ki=IC50/(1+[L]/KD) where [L] is the concentration of radioligand and KD is its dissociation constant at the receptor, derived from the saturation isotherm. All experiments were performed in duplicate and the mean±standard error (SEM) of the individual Ki values was calculated.

CC(=O)N(C)C1(c2ccccc2)CCN(CCC[C@]2(c3ccc(Cl)c(Cl)c3)CCCN(C(=O)c3ccccc3)C2)CC1 [SR 142,801, Osanetant]
activity on positive symptoms of schizophrenia ([1]; altered behaviour, delusion, hallucinations, extreme emotions, excited motor activity, incoherent speech): active
activity in the treatment of negative symptoms ([1]; depression, anhedonia, social isolation or memory and attention deficits): inactive

C[C@H](Oc1ccc(Cl)cn1)[C@H]1CN(C(=O)C2CCN(C(=O)C3CCC3)CC2)C[C@@H]1c1ccc(Cl)c(Cl)c1 (racemic) [Example 3, [(3RS,4SR)-3-[(SR)-1-(5-Chloro-pyridin-2-yloxy)-ethyl]-4-(3,4-dichloro-phenyl)-pyrrolidin-1-yl]-(1-cyclobutanecarbonyl-piperidin-4-yl)-methanone]
Ki [2]: 0.0012 µM

C[C@H](Oc1ccc(C#N)cn1)[C@H]1CN(C(=O)C2CCN(C(=O)C3(C)CC3)CC2)C[C@@H]1c1ccc(Cl)c(Cl)c1 (racemic) [Example 17, 6-((SR)-1-{(3RS,4SR)-4-(3,4-Dichloro-phenyl)-1-[1-(1-methyl-cyclopropanecarbonyl)-piperidine-4-carbonyl]-pyrrolidin-3-yl}-ethoxy)-nicotinonitrile]
Ki [2]: 0.0046 µM

C[C@H](Oc1ccc(C#N)cn1)[C@H]1CN(C(=O)[C@H]2CC[C@H](NC(=O)OC(C)(C)C)CC2)C[C@@H]1c1ccc(Cl)c(Cl)c1 (racemic) [Example 43, {4-[(3RS,4SR)-3-[(SR)-1-(5-Cyano-pyridin-2-yloxy)-ethyl]-4-(3,4-dichloro-phenyl)-pyrrolidine-1-carbonyl]-cyclohexyl}-carbamic acid tert-butyl ester]
Ki [2]: 0.007 µM

C[C@H](Oc1ccc(C#N)cn1)[C@H]1CN(C(=O)C2CCN(C(=O)C3(N)CC3)CC2)C[C@@H]1c1ccc(Cl)c(Cl)c1 (racemic) [Example 19, 6-{(SR)-1-[(3RS,4SR)-1-[1-(1-Amino-cyclopropanecarbonyl)-piperidine-4-carbonyl]-4-(3,4-dichloro-phenyl)-pyrrolidin-3-yl]-ethoxy}-nicotinonitrile]
Ki [2]: 0.0077 µM

C[C@H](Oc1ccc(Cl)cn1)[C@H]1CN(C(=O)C2CCC(=O)CC2)C[C@@H]1c1ccc(Cl)c(Cl)c1 (racemic) [Example 12, 4-[(3RS,4SR)-3-[(SR)-1-(5-Chloro-pyridin-2-yloxy)-ethyl]-4-(3,4-dichloro-phenyl)-pyrrolidine-1-carbonyl]-cyclohexanone]
Ki [2]: 0.0092 µM
